Like-named read-outs stand apart in the source and are kept apart here. Square brackets hold non-standard residues; d marks the D form. Ends that are not written are not given here.

For assay [1], the system named is GFP-FoxM1B. Description: Nuclear localization of transfected GFP-FoxM1B in U2OS cells. It counts as cell-based, human. Conditions: 1 μM. From the text:
FIGS. 7A-H show nuclear localization of GFP-FoxM1B fusion protein following treatment with either pharmacological kinase inhibitors or dominant negative kinases. U20S cells were transiently transfected with CMV GFP-FoxM1B with the indicated pharmacological kinase inhibitors (B-D) or dominant-negative kinase expression vectors (E-H). Cells in panel (A) were untreated.
U2OS cells were transiently transfected in 2 well chamber slides (Nunc) with CMV GFP-FoxM1B expression constructs in the presence or absence of either CMV WT T7-p19^ARF, CMV HA-p19^ARF, or CMV expression constructs containing either N-terminal mutant T7-p19^ARF proteins (Δ1-14, Δ15-25, or Δ26-37) or V5-TAT-p19^ARF proteins (26-44; SEQ ID NO: 11, or 26-55; SEQ ID NO: 12). U2OS cells were transiently transfected with CMV EGFP expression vector containing the TAT-p19^ARF proteins (26-44; SEQ ID NO: 11, or 26-55; SEQ ID NO: 12). Forty-eight hours post transfection, cells were fixed in 4% Para-formaldehyde for 20 minutes at room temperature. GFP fluorescence or immuno-fluorescence with anti-HA antibody following TRITC conjugated secondary antibody was detected using a Zeiss microscope. U2OS cells were treated with 12 μM of the rrrrrrrrrKFVRSRRPRTASCALAFVN (SEQ ID NO: 10) peptide for 24 hours and then analyzed for TRITC fluorescence as described above.

In assay [2] the test system is HCC. Conditions: cited from earlier work.
For assay [3], the system named is CMV-TETO GFP-Foxm1b U2OS clone C3 cells. As to the kind of experiment: Soft agar colony formation, Doxycycline induced GFP-FoxM1B U2OS clone C3 cells. To be noted: 12 μM peptide, 1 μg/ml Doxycycline, two weeks. In kind it is cell-based, human. The method, then:
(§1) The T-REx™-U2OS cells were purchased from Invitrogen Life Technologies (Catalog No. R712-07). The T-REx™-U2OS cells express the Tet repressor from pCEP4/tetR that was episomally maintained in tissue culture medium containing 10% fetal calf serum and drug selection with 50 μg/ml of Hygromycin B. Tetracycline regulation in the T-REx System was based on the binding of tetracycline to the TET repressor and de-repressing of the CMV-TETO promoter controlling expression of the gene of interest (Yao et al., 1998, Hum Gene Ther 9:1939-1950). The pcDNA4-TO GFP-FoxM1B expression plasmid provided in the T-REx™ system was generated as described previously (Major et al., 2004, Mol. Cell. Biol. 24:2649-2661) and transfected T-REx™-U2OS cells with linearized pcDNA4-TO GFP-Foxm1b expression plasmid to select clonal Doxycycline inducible GFP-Foxm1b U2OS cell lines. CMV-TETO GFP-FoxM1B U2OS clones were isolated by selection for three weeks with tissue culture medium containing 50 μg/ml of Hygromycin B and 250 μg/ml of Zeocin. […] Wild type U2OS cells or CMV-TETO GFP-Foxm1b U2OS clone C3 cells were grown in medium with or without 1 μg/ml of Doxycycline for 2 days prior to either adding the (D-Arg)9-p19^ARF 26-44 peptide or left untreated. […] U2OS cell colonies that were larger than 1 mm in size were scored after two weeks of growth on the soft agar.

For assay [4], the system named is FoxM1B transcriptional activity. As to the kind of experiment: FoxM1B transcriptional activity, 6xFoxM1B TATA-luciferase reporter assay in transfected U2OS cells. In kind it is cell-based, human. To be noted: 12 μM peptide, 24 hours. The source says: A 6×FoxM1B/FoxA TATA-Luciferase utilized 6 copies of the FoxM1B/FoxA binding site (TTTGTTTGTTTG; SEQ ID NO: 6) from the cdx-2 promoter region driving expression of the CMV-TATA box luciferase reporter gene as described previously (Rausa et al., 2003, Mol. Cell. Biol. 23:437-449; Samadani et al., 1996, Mol. Cell. Biol. 16:6273-6284; Ye et al., 1997, Mol. Cell Biol. 17:1626-1641).
Inhibiting Cdk1 activity with either dominant negative (DN) Cdk1 or a pharmacologically active concentration of Alsterpaullone (1 μM) caused an 80% to 90% reduction in FoxM1B transcriptional activity (FIG. 6C). […] Consistent with these findings, stimulation of Cdk1 activity by co-transfection of either CMV Cdc25B or Cdc25C phosphatases enhanced FoxM1B transcriptional activity by 3.4-fold and 1.7-fold, respectfully (FIGS. 6B and 6D). […]
Human osteosarcoma U2OS cells were maintained in DMEM supplemented with 10% fetal calf serum, 1×Pen/Strep and 1×L-Glutamine (Gibco). […] Luciferase activity was determined as percent of wild type FoxM1B activity following normalization to Renilla activity. Experiments were performed at least four times in triplicate and mean±SD determined. […]

Assay [5] concerns parental U2OS cells. Description: Soft agar colony formation, parental U2OS cells. It counts as cell-based, human. Conditions: 12 μM peptide, two weeks. Here is the method: as §1
Assay [6] has as its system S2 cells. To be noted: 24 hours.
Procedure: TUNEL assay was used to measure apoptosis in S2 cells treated with WT-blocked, mutant-blocked or WT-unblocked (D-Arg)9-p19^ARF 26-44 peptides. (D-Arg)9-p19^ARF 26-44 peptide treatment of cells was performed in 8-well chamber slides for TUNEL staining. On Day 0, 20,000 cells per well were seeded in the 8-well chamber slides. On Day 1, slides were replenished with fresh media containing one of the following concentrations of either WT-blocked, mutant-blocked or WT-unblocked (D-Arg)9-p19^ARF 26-44 peptides: 10, 15, 25, 30, 40 and 70 μM for 24 hours. On Day 2, TUNEL staining was performed following the manufacture's protocol (ApopTag® Fluorescein In Situ Apoptosis Detection Kit from CHEMICON® International, S7110). The percent of apoptosis of S2 cells (±SD) was measured by counting the number of TUNEL-positive cells (green fluorescence) per 1,000 nuclei as visualized by DAPI (blue fluorescence) counterstaining. The experiment was repeated in a second experiment using the same protocol. Statistical analysis and EC50 calculation were performed using GraphPad Prism software.
Assay [7] relates to p53 null thymic lymphoma cells. Description: Kidney colonization of intravenously injected p53 null thymic lymphoma cells in SCID mice. In kind it is in vivo, mouse. To be noted: 2.5 mg/kg intraperitoneal every other day, 10 injections. The method, then:
These experiments were performed to determine if modifying the termini conferred any advantages on these peptides when administered to an animal. Both wild type ARF 26-44 (rrrrrrrrrKFVRSRRPRTASCALAFVN) (SEQ ID NO 10) and mutant ARF 37-44 (rrrrrrrrrSCALAFVN) (SEQ ID NO 21) peptides were synthesized by Genemed Synthesis Inc. (San Antonio, Tex.). The N-terminus of each peptide was fused with nine D-Arg(r) residues. Both wild type and mutant peptides were blocked with amidation on C-terminus and acetylation on N-terminus. For sarcoma cells, mice were treated with 5 mg/kg body weight of peptide every other day for 10 times. For lymphoma cells, mice were treated with 2.5 mg/kg body weight of peptide every other day for 10 times.
To test the therapeutic effect of the ARF-peptide on p53 null tumors in vivo, p53 null lymphoma/sarcoma cells were introduced into the circulation of SCID mice through intravenous injection. ICR SCID mice were obtained from Taconic Farms (Germantown, N.Y.). Both p53 null sarcoma and lymphoma cells were stably transduced before injection with lentivirus carrying a gene conferring luciferase expression. Specifically, cells were stably transduced with pFU-L2G luciferase construct obtained from Sanjiv Sam Gambhir (M. D., Ph.D) of Stanford University as optimized by Dr. Huiping Liu (Liu et al., Proc Natl Acad Sci USA, 107: 18115-18120). This construct enabled expression of both the bioluminescence and green fluorescence protein. eGFP positive cells were sorted by Beckman Coulter MoFlo. 3×10^6 cells were suspended in cold PBS and injected through the tail vein of SCID mice. Live animal imaging was performed using an IVIS Spectrum optical imaging machine (Caliper Life Sciences, Alameda, Calif.). […] Mice were randomized into three groups and were treated with PBS, mutant-peptide or the wild type ARF-peptide for 10 injections every other day by intraperitoneal injection. […] The mice were sacrificed and lung sections were analyzed for tumor colonies. […] For the p53 null thymic lymphoma cells, metastatic growth in kidney was observed, consistent with murine thymic lymphoma cells having a tendency to colonize kidney, liver and spleen (Aoudjit et al., 1998, Blood, 91: 623-629).

With `O=C1Cc2c([nH]c3ccc([N+](=O)[O-])cc23)-c2ccccc2N1` [Alsterpaullone], the “Nuclear localization of transfected CMV GFP-FoxM1B protein” value in assay [1] is recorded as “Neither DN-Cdk1 nor Alsterpaullone (1 μM) altered nuclear localization”.

In the case of “rrrrrrrrrKFVRSRRPRTASCALAFVN ([dR][dR][dR][dR][dR][dR][dR][dR][dR]KFVRSRRPRTASCALAFVN; not fully specified (N-terminus, C-terminus); printed as rrrrrrrrrKFVRSRRPRTASCALAFVN; also: end groups differ between preparations (TRITC N-term/acetyl C-term vs Ac N-term/amide C-term); listed as Mus musculus) [(D-Arg)9-p19^ARF 26-44 peptide, p19ARF 26-44 peptide containing nine D-Arg residues at the N-terminus]”, the “HCC tumor size / progression” value in assay [2] (mouse HCC (DEN/PB induced)) is listed as “effective in diminishing tumor size in HCC”. Further, the “Metastasis of HCC cells” value in assay [2] (mouse HCC cells) is “effectively prevented pulmonary metastasis of HCC cells”. Also, in assay [3], the “FoxM1B induced colony formation on soft agar” value is reported as “significantly diminished the ability of induced GFP-FoxM1B to stimulate colony formation”. Moreover, in assay [4], the “Effect on FoxM1B transcriptional activity” value is on record as “significant reduction in FoxM1B transcriptional activity”. Also, the “Colony formation on soft agar” value in assay [5] was “significantly diminished the ability of the parental U2OS cells to form colonies on soft agar”.

For “rrrrrrrrrKFVRSRRPRTASCALAFVN (not fully specified (N-terminus, C-terminus); printed as rrrrrrrrrKFVRSRRPRTASCALAFVN; UniProt Q64364 26-44, looked up, fragment) [WT Unblocked]”, the “% of TUNEL Positive S2 Cells, Mean” value is reported as 2.46% in assay [6] (Experiment 1, 10 μM/Well); 1.27% in assay [6] (Experiment 1, 25 μM/Well); 5.59% in assay [6] (Experiment 1, 30 μM/Well); 19.94% in assay [6] (Experiment 1, 40 μM/Well); 6.79% in assay [6] (Experiment 2, 10 μM/Well); 7.56% in assay [6] (Experiment 2, 15 μM/Well). Moreover, the “% of TUNEL Positive S2 Cells, Mean” value was 11.19% in assay [6] (Experiment 2, 25 μM/Well); 20.51% in assay [6] (Experiment 2, 40 μM/Well); 30.34% in assay [6] (Experiment 2, 70 μM/Well). The “Apoptosis induction compared between peptides (TUNEL)” value in assay [6] (S2 cells, 10-70 μM) is given as “showed some activity compared to the mutant-blocked peptide at doses higher than 30 μM”.

As to “rrrrrrrrrSCALAFVN (SCALAFVN-NH2; not fully specified (N-terminus); printed as rrrrrrrrrSCALAFVN; UniProt Q64364 37-44, looked up, fragment) [mutant ARF peptide, reference compound]”, the “Kidney tumor mass at sacrifice” value in assay [7] is reported as “large tumor masses were found in the kidney”. In assay [7] (around 20 days after inoculation), the “Luciferase signal from colonized lymphoma cells” value is listed as “displayed strong luciferase signals”.

Source of the values: patent publication US8906860B2, “Methods and compositions inhibiting tumor cell proliferation” (The Board of Trustees of the University of Illinois, priority 2011, dated 2014).
